Among the data in patent US8263656B2 (Hoffmann-La Roche Inc., priority 2008, dated 2012) are IC50 values, retold here.

In experiment [1] the test system is DK-PGD2-induced IL-13 production in T helper type 2 (Th2) cells. Kind of experiment: DK-PGD2-Induced IL-13 Production Assay in Th2 Cells. Particulars: human Th2 cells, 500 nM DK-PGD2, 4 hrs at 37° C., ELISA; unit inferred; read-out: IC50 of inhibiting IL-13 production (values greater than 10). In kind it is cell-based. As for the experimental part: Inhibition of 13,14-dihydro-15-keto Prostaglandin D2 (DK-PGD2)-induced IL-13 production in T helper type 2 (Th2) cells was applied to evaluate compound cellular potency.
Cultures of Th2 cells were established from blood of healthy human volunteers according to the following procedure. Peripheral blood mononuclear cells (PBMC) were first isolated from 50 mL of fresh blood by Ficoll-Hypaque density gradient centrifugation, followed by CD4^+ cell purification using a CD4^+ T Cell Isolation Kit II (from Miltenyi Biotec Inc.). The CD4^+ T cells were then differentiated to Th2 cells by culturing the cells in X-VIVO 15® medium (from Cambrex BioScience Walkersville Inc.) containing 10% human AB serum (serum of blood type AB from Invitrogen Corporation), 50 U/mL of recombinant human interleukin-2 (rhIL-2) (from PeproTech Inc.) and 100 ng/mL of recombinant human interleukin-4 (rhIL-4) (from PeproTech Inc.) for 7 days. The Th2 cells were isolated using a CD294 (CRTH2) MicroBead Kit (from Miltenyi Biotec Inc.) and amplified in X-VIVO 15® medium containing 10% human AB serum and 50 U/mL of rhIL-2 for 2 to 5 weeks. In general, 70% to 80% of the Th2 cells used in the assay are CRTH2-positive when analyzed by fluorescence-activated cell sorting using the BM16 antibody (as previously described) conjugated to phycoerythrin (PE).
The spontaneous production of IL-13 by Th2 cells was determined in the absence of DK-PGD2 stimulation and the value was subtracted from that in the presence of each compound for percent inhibition and IC50 calculations.
The percent inhibition of interleukin 13 (IL-13) production for a compound at various concentrations was calculated according to the following formula, [1-(IL-13 production in the presence of compound)/(IL-13 production in the presence of 0.15% DMSO)]×100. The IC50 value, defined as the concentration of a compound that is required for 50% inhibition of IL-13 production, was calculated by fitting the percent inhibition data for 7 concentrations to a sigmoidal dose-response (4 parameter logistic) model in the XLfit® software Excel add-in program [ID Business Solutions Ltd., model 205, where F(x)=(A+(B−A)/(1+((C/x)^D)))].
In general terms: ELISA stands for enzyme-linked immunosorbent assay.

In the next experiment the target is T1, human CRTH2 (Homo sapiens, UniProt Q9Y5Y4).
T1 construct: expressed in transfected cells
T1 sequence (Q9Y5Y4 1-395): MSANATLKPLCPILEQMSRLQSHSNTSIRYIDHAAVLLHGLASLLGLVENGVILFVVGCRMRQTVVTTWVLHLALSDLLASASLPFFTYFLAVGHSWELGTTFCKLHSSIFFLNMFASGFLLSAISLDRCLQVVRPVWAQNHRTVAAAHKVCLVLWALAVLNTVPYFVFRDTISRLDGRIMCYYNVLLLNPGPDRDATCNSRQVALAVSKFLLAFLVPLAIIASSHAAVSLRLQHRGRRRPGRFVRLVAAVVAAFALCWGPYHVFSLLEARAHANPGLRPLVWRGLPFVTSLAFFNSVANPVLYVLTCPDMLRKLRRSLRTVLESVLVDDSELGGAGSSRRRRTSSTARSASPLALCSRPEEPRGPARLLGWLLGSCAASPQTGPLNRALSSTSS
Kind of experiment: Human CRTH2 Receptor Binding Assay (whole cell, [3H]ramatroban competition). Particulars: CHO-K1 cells expressing human CRTH2 and G-alpha16; 20 nM [3H]ramatroban; 1 hour, room temperature. The method in brief:
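CHO-K1 cells stably expressing human CRTH2 and G-alpha16 (1.5×10^5 cells) incubated 1 h at room temperature with 20 nM [3H]ramatroban in PBS, 10 mM MgCl2, 0.06% BSA, then filtered and counted. Non-specific binding defined with 10 μM 15(R)-15-methyl PGD2; IC50 from 7-concentration 4-parameter logistic fit of specific-binding inhibition.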

By IC50 is commonly meant the concentration that inhibits the measured activity by half. For the molecule `CN(C1CCCc2c1cc(Cl)c(F)c2OCC(=O)O)S(=O)(=O)c1ccc(Cl)cc1Cl` (centres unmarked) [Example 2-11, {3-Chloro-5-[(2,4-dichloro-benzenesulfonyl)-methyl-amino]-2-fluoro-5,6,7,8-tetrahydro-naphthalen-1-yloxy}-acetic acid], the values for the IC50 (in experiment [1]; at human CRTH2) were greater than 10 µM and 0.536 µM, respectively.
The matching figures for `CCc1ccc2c(c1OCC(=O)O)CCCC2N(C)S(=O)(=O)c1cc(C(F)(F)F)cc(C(F)(F)F)c1` (centres unmarked) [Example 2-3, {5-[(3,5-Bis-trifluoromethyl-benzenesulfonyl)-methyl-amino]-2-ethyl-5,6,7,8-tetrahydro-naphthalen-1-yloxy}-acetic acid]: greater than 10 µM and 0.177 µM.
On to `CN(C1CCCc2c(OCC(=O)O)cc(F)cc21)S(=O)(=O)c1ccc(Cl)cc1Cl` (centres unmarked) [Example 2-16], for which the figures for the IC50 (in experiment [1]; at human CRTH2) were greater than 10 µM and 0.981 µM, respectively.
The matching figures for `Cc1ccc2c(c1OCC(=O)O)CCCC2N(C)S(=O)(=O)c1cc(C(F)(F)F)cc(C(F)(F)F)c1` (centres unmarked) [Example 2-2, {5-[(3,5-Bis-trifluoromethyl-benzenesulfonyl)-methyl-amino]-2-methyl-5,6,7,8-tetrahydro-naphthalen-1-yloxy}-acetic acid]: greater than 10 µM and 0.311 µM.
